{"source": "patent US11952586B2", "about": "“B-cell cultivation method” (Hoffmann-La Roche Inc., priority 2017, dated 2024)", "tested_on": "single deposited B-cells", "assay": "co-cultivation of single deposited B-cells with EL-4 B5 cells; antigen binding immunoassay (HSA)", "format": "cell-based, rabbit", "method": "Single cell sorted B-cells were cultured in 96-well plates with 200 μl/well EL-4 B5 medium with Pansorbin Cells (SAC) (Calbiochem (Merck), Darmstadt, Deutschland), EL-4 B5 cells (0-5×10^4/well) and rabbit thymocyte supernatant or cytokine mix, respectively, for 7 days at 37° C. in an atmosphere of 5% CO2 in the incubator. B-cell culture supernatants were removed for screening and the cells harvested immediately for variable region gene cloning or frozen at −80° C. in 100 μl RLT buffer (Qiagen, Hilden, Germany).\nThe assay was performed at room temperature (RT) on 384-well MaxiSorp microtiter plates (Thermo Scientific) with PBS (phosphate buffered saline) buffer supplemented with 0.5% Gelatin and 0.025% Tween®-20. The plates were coated with 0.5 μg/ml of human serum albumin (HSA, Sigma-Aldrich) for at least 2 hours to overnight. After washing (3×) with PBST (PBS with 0.1% Tween®-20) buffer the wells were blocked with PBS with 0.5% Gelatin and 0.1% Tween®-20. Again, the plates were washed three-times and afterwards dilutions of B-cell supernatants were added. After an incubation of 60 min and 3 washing steps with PBST a 1:4,000 dilution of a HRP-conjugated anti-rabbit IgG antibody (Amersham) was transferred to the wells and incubated for 60 min. Finally, the plates were repeatedly washed (6×) with PBST and developed with BM Blue® HRP substrate solution for 30 min. Absorbance was measured at 392-405 nm.", "key": {"[1]": {"settings": "PMA 0.048 ng/ml, 3 Gy, 15k/Well"}, "[2]": {"settings": "PMA 0.048 ng/ml, 4 Gy, 20k/Well"}, "[3]": {"settings": "PMA 0.048 ng/ml, 5 Gy, 20k/Well"}, "[4]": {"settings": "PMA 0.048 ng/ml, 8 Gy, 20k/Well"}, "[5]": {"settings": "PMA 0.048 ng/ml, 50 Gy, 50k/Well"}, "[6]": {"settings": "PMA 0.109 ng/ml, 3 Gy, 15k/Well"}, "[7]": {"settings": "PMA 0.109 ng/ml, 4 Gy, 20k/Well"}, "[8]": {"settings": "PMA 0.109 ng/ml, 5 Gy, 20k/Well"}, "[9]": {"settings": "PMA 0.109 ng/ml, 8 Gy, 20k/Well"}, "[10]": {"settings": "PMA 0.109 ng/ml, 50 Gy, 50k/Well"}, "[11]": {"settings": "PMA 0.25 ng/ml, 50 Gy, 50k/Well"}, "[12]": {"settings": "PMA 0.57 ng/ml, 50 Gy, 50k/Well"}, "[13]": {"settings": "PMA 1.3 ng/ml, 3 Gy, 15k/Well, HSA immunized rabbit"}}, "data": [{"compound": "CCCCCCCCCCCCCC(=O)O[C@@H]1[C@@H](C)[C@@]2(O)[C@@H](C=C(CO)C[C@]3(O)C(=O)C(C)=C[C@@H]23)[C@@H]2C(C)(C)[C@]12OC(C)=O", "note": "[PMA, phorbol-12-myristate-13-acetate]", "values": [{"measurement": "HSA (absolute corrected) Freq./plate OD>c", "setting": "[1]", "value": 25, "unit": "% total"}, {"measurement": "HSA (absolute corrected) Freq./plate OD>c and rbIgG+", "setting": "[1]", "value": 48.8, "unit": "% IgG"}, {"measurement": "HSA (absolute corrected) Freq./plate OD>c", "setting": "[2]", "value": 36.9, "unit": "% total"}, {"measurement": "HSA (absolute corrected) Freq./plate OD>c and rbIgG+", "setting": "[2]", "value": 50, "unit": "% IgG"}, {"measurement": "HSA (absolute corrected) Freq./plate OD>c", "setting": "[3]", "value": 27.4, "unit": "% total"}, {"measurement": "HSA (absolute corrected) Freq./plate OD>c and rbIgG+", "setting": "[3]", "value": 38.3, "unit": "% IgG"}, {"measurement": "HSA (absolute corrected) Freq./plate OD>c", "setting": "[4]", "value": 42.9, "unit": "% total"}, {"measurement": "HSA (absolute corrected) Freq./plate OD>c and rbIgG+", "setting": "[4]", "value": 49.3, "unit": "% IgG"}, {"measurement": "HSA (absolute corrected) Freq./plate OD>c", "setting": "[5]", "value": 14.3, "unit": "% total"}, {"measurement": "HSA (absolute corrected) Freq./plate OD>c and rbIgG+", "setting": "[5]", "value": 58.3, "unit": "% IgG"}, {"measurement": "HSA (absolute corrected) Freq./plate OD>c", "setting": "[6]", "value": 9.5, "unit": "% total"}, {"measurement": "HSA (absolute corrected) Freq./plate OD>c and rbIgG+", "setting": "[6]", "value": 17.5, "unit": "% IgG"}, {"measurement": "HSA (absolute corrected) Freq./plate OD>c", "setting": "[7]", "value": 32.1, "unit": "% total"}, {"measurement": "HSA (absolute corrected) Freq./plate OD>c and rbIgG+", "setting": "[7]", "value": 42.2, "unit": "% IgG"}, {"measurement": "HSA (absolute corrected) Freq./plate OD>c", "setting": "[8]", "value": 42.9, "unit": "% total"}, {"measurement": "HSA (absolute corrected) Freq./plate OD>c and rbIgG+", "setting": "[8]", "value": 47.1, "unit": "% IgG"}, {"measurement": "HSA (absolute corrected) Freq./plate OD>c", "setting": "[9]", "value": 32.1, "unit": "% total"}, {"measurement": "HSA (absolute corrected) Freq./plate OD>c and rbIgG+", "setting": "[9]", "value": 41.5, "unit": "% IgG"}, {"measurement": "HSA (absolute corrected) Freq./plate OD>c", "setting": "[10]", "value": 9.5, "unit": "% total"}, {"measurement": "HSA (absolute corrected) Freq./plate OD>c and rbIgG+", "setting": "[10]", "value": 50, "unit": "% IgG"}, {"measurement": "HSA (absolute corrected) Freq./plate OD>c", "setting": "PMA 0.25 ng/ml, 3 Gy, 15k/Well", "value": 21.4, "unit": "% total"}, {"measurement": "HSA (absolute corrected) Freq./plate OD>c and rbIgG+", "setting": "PMA 0.25 ng/ml, 3 Gy, 15k/Well", "value": 45, "unit": "% IgG"}, {"measurement": "HSA (absolute corrected) Freq./plate OD>c", "setting": "PMA 0.25 ng/ml, 4 Gy, 20k/Well", "value": 33.3, "unit": "% total"}, {"measurement": "HSA (absolute corrected) Freq./plate OD>c and rbIgG+", "setting": "PMA 0.25 ng/ml, 4 Gy, 20k/Well", "value": 44.4, "unit": "% IgG"}, {"measurement": "HSA (absolute corrected) Freq./plate OD>c", "setting": "PMA 0.25 ng/ml, 5 Gy, 20k/Well", "value": 32.1, "unit": "% total"}, {"measurement": "HSA (absolute corrected) Freq./plate OD>c and rbIgG+", "setting": "PMA 0.25 ng/ml, 5 Gy, 20k/Well", "value": 38, "unit": "% IgG"}, {"measurement": "HSA (absolute corrected) Freq./plate OD>c", "setting": "PMA 0.25 ng/ml, 8 Gy, 20k/Well", "value": 32.1, "unit": "% total"}, {"measurement": "HSA (absolute corrected) Freq./plate OD>c and rbIgG+", "setting": "PMA 0.25 ng/ml, 8 Gy, 20k/Well", "value": 36.5, "unit": "% IgG"}, {"measurement": "HSA (absolute corrected) Freq./plate OD>c", "setting": "[11]", "value": 13.1, "unit": "% total"}, {"measurement": "HSA (absolute corrected) Freq./plate OD>c and rbIgG+", "setting": "[11]", "value": 47.1, "unit": "% IgG"}, {"measurement": "HSA (absolute corrected) Freq./plate OD>c", "setting": "PMA 0.57 ng/ml, 3 Gy, 15k/Well", "value": 11.9, "unit": "% total"}, {"measurement": "HSA (absolute corrected) Freq./plate OD>c and rbIgG+", "setting": "PMA 0.57 ng/ml, 3 Gy, 15k/Well", "value": 33.3, "unit": "% IgG"}, {"measurement": "HSA (absolute corrected) Freq./plate OD>c", "setting": "PMA 0.57 ng/ml, 4 Gy, 20k/Well", "value": 26.2, "unit": "% total"}, {"measurement": "HSA (absolute corrected) Freq./plate OD>c and rbIgG+", "setting": "PMA 0.57 ng/ml, 4 Gy, 20k/Well", "value": 36.1, "unit": "% IgG"}, {"measurement": "HSA (absolute corrected) Freq./plate OD>c", "setting": "PMA 0.57 ng/ml, 5 Gy, 20k/Well", "value": 38.1, "unit": "% total"}, {"measurement": "HSA (absolute corrected) Freq./plate OD>c and rbIgG+", "setting": "PMA 0.57 ng/ml, 5 Gy, 20k/Well", "value": 43.8, "unit": "% IgG"}, {"measurement": "HSA (absolute corrected) Freq./plate OD>c", "setting": "PMA 0.57 ng/ml, 8 Gy, 20k/Well", "value": 35.7, "unit": "% total"}, {"measurement": "HSA (absolute corrected) Freq./plate OD>c and rbIgG+", "setting": "PMA 0.57 ng/ml, 8 Gy, 20k/Well", "value": 44.1, "unit": "% IgG"}, {"measurement": "HSA (absolute corrected) Freq./plate OD>c", "setting": "[12]", "value": 40.5, "unit": "% total"}, {"measurement": "HSA (absolute corrected) Freq./plate OD>c and rbIgG+", "setting": "[12]", "value": 46.5, "unit": "% IgG"}, {"measurement": "HSA (absolute corrected) Freq./plate OD>c", "setting": "[13]", "value": 3.6, "unit": "% total"}, {"measurement": "HSA (absolute corrected) Freq./plate OD>c and rbIgG+", "setting": "[13]", "value": 42.9, "unit": "% IgG"}, {"measurement": "HSA (absolute corrected) Freq./plate OD>c", "setting": "PMA 1.3 ng/ml, 4 Gy, 20k/Well", "value": 31, "unit": "% total"}, {"measurement": "HSA (absolute corrected) Freq./plate OD>c and rbIgG+", "setting": "PMA 1.3 ng/ml, 4 Gy, 20k/Well", "value": 42.6, "unit": "% IgG"}, {"measurement": "HSA (absolute corrected) Freq./plate OD>c", "setting": "PMA 1.3 ng/ml, 5 Gy, 20k/Well", "value": 34.5, "unit": "% total"}, {"measurement": "HSA (absolute corrected) Freq./plate OD>c and rbIgG+", "setting": "PMA 1.3 ng/ml, 5 Gy, 20k/Well", "value": 40.8, "unit": "% IgG"}, {"measurement": "HSA (absolute corrected) Freq./plate OD>c", "setting": "PMA 1.3 ng/ml, 8 Gy, 20k/Well", "value": 36.9, "unit": "% total"}, {"measurement": "HSA (absolute corrected) Freq./plate OD>c and rbIgG+", "setting": "PMA 1.3 ng/ml, 8 Gy, 20k/Well", "value": 40.5, "unit": "% IgG"}, {"measurement": "HSA (absolute corrected) Freq./plate OD>c", "setting": "PMA 1.3 ng/ml, 50 Gy, 50k/Well", "value": 40.5, "unit": "% total"}, {"measurement": "HSA (absolute corrected) Freq./plate OD>c and rbIgG+", "setting": "PMA 1.3 ng/ml, 50 Gy, 50k/Well", "value": 47.1, "unit": "% IgG"}]}]}
